Data set [1] can be described thus: Permeability of the compound. The note with it: not told; read-out: permeability. The format is ADME.
The nature of data set [2]: Cmax in Sprague-Dawley rat at 2 mg/kg, po administered through cassette dosing as by LC-MS/MS analysis. Type of data set: ADME, organism-based. Details: dose 2 mg/kg, route oral. The note with it: in vivo.
The nature of data set [3]: AUC in Sprague-Dawley rat at 2 mg/kg, po administered through cassette dosing by LC-MS/MS analysis. Type of data set: ADME, organism-based. Conditions: in vivo.
Data set [4] addresses Mitogen-activated protein kinase 14 (Homo sapiens, UniProt Q16539).
The target in data set [5] is Vascular endothelial growth factor receptor 2 (Homo sapiens, UniProt P35968).
Sequence of Vascular endothelial growth factor receptor 2 (P35968 whole entry): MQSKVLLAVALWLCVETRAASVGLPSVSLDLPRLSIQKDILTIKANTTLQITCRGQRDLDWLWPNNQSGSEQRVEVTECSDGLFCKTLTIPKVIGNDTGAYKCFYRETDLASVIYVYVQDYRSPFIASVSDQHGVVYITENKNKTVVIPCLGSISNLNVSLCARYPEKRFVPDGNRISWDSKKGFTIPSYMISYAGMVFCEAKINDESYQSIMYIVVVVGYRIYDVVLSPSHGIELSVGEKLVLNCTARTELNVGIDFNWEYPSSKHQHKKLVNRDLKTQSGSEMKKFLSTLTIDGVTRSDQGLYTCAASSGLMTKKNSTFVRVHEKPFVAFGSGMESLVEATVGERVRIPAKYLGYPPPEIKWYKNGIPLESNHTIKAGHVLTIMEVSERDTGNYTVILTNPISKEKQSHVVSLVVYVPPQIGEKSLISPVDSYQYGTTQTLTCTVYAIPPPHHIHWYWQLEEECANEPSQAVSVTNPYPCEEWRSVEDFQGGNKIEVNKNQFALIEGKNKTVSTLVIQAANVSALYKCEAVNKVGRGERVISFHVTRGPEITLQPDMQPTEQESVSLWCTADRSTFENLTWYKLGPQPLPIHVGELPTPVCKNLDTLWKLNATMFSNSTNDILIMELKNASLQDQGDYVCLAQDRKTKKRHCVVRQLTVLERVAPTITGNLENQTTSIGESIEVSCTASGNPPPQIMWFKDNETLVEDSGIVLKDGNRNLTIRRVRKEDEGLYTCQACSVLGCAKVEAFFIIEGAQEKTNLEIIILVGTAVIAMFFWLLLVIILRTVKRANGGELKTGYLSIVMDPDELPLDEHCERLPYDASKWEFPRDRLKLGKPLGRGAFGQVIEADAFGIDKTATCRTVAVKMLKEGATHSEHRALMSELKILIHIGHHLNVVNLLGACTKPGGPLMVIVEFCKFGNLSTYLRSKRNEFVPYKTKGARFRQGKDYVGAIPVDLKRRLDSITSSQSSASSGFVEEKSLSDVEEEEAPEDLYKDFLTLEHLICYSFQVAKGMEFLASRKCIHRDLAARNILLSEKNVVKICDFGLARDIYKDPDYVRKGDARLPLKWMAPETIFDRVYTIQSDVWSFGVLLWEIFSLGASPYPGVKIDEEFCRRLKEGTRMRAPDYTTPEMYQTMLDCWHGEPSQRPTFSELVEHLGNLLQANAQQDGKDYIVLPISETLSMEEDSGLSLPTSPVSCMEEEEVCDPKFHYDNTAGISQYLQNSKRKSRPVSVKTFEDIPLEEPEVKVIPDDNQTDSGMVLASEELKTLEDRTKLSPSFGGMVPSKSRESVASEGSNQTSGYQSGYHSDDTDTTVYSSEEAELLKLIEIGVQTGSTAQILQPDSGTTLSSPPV
In data set [6] the test system is Intestinal mucosa. The data set is described as follows: Inhibition of TNFalpha production in intestinal mucosa derived from Crohn's disease patient at 1 uM measured after 24 hrs by sandwich ELISA. The note with it: Homo sapiens. Type of data set: functional, tissue-based. On the technique in general: In an ELISA, binding on a coated surface is turned into a signal by an enzyme label.

Data set [7] deals with Intestinal mucosa. Kind of data set: Inhibition of IL6 production in intestinal mucosa derived from Crohn's disease patient at 1 uM measured after 24 hrs by sandwich ELISA. The format is functional, tissue-based. The note with it: Homo sapiens.
The subject of data set [8] is Intestinal mucosa. The data set is described as follows: Inhibition of TNFalpha production in intestinal mucosa derived from ulcerative colitis patient at 1 uM measured after 24 hrs by sandwich ELISA. Type of data set: functional, tissue-based. The note with it: Homo sapiens.
Data set [9] concerns Intestinal mucosa. The data set is described as follows: Inhibition of IL6 production in intestinal mucosa derived from ulcerative colitis patient at 1 uM measured after 24 hrs by sandwich ELISA. The format is functional, tissue-based. The note with it: Homo sapiens.

Active and inactive are the calls of the source. The rule behind the calls is not given here.

Sequence of Mitogen-activated protein kinase 14 (Q16539 whole entry): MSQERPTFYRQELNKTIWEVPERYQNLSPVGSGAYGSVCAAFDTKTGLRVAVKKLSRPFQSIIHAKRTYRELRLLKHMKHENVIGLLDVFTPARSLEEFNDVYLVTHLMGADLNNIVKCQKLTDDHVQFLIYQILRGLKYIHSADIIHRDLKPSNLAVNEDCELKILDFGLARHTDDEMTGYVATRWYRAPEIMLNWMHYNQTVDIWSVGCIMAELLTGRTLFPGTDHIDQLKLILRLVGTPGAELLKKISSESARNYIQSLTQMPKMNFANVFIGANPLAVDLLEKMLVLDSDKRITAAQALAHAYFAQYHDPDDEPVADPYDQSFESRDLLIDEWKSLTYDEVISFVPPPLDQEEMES

For `Cc1ccc(O)cc1Nc1ccnc2ccc(C(F)(F)F)cc12`, in [1], the Papp is 49 ×10⁻⁶ cm/s.
Still for that read-out and setting: the figure for `Cc1ccc(O)cc1Nc1ccnc2ccccc12` is 25 ×10⁻⁶ cm/s; for `Cc1ccc(O)cc1Nc1ccnc2ccc(-c3cccnc3)cc12` it is 23 ×10⁻⁶ cm/s; for `Cc1ccc(O)cc1Nc1ccnc2ccc(S(C)(=O)=O)cc12` [GW559768X] it is 7.9 ×10⁻⁶ cm/s.
Take `CS(=O)(=O)c1ccc2nccc(Nc3n[nH]c4ccc(F)cc34)c2c1`: the highest level in data set [2] (Cmax) was 500 ng/mL. Moreover, the AUC in [3] turned out to be 1700 ng·h/mL.
`Cc1ccc(O)cc1Nc1ccnc2ccc(C(=O)NCC3CCOCC3)cc12`: the Papp in [1] worked out at 1.5 ×10⁻⁶ cm/s. Moreover, the IC50 in [4] and in [5] was greater than 5 µM each time.
As to `C[C@]12C=CC(=O)C=C1CC[C@@H]1[C@@H]2[C@@H](O)C[C@@]2(C)[C@H]1CC[C@]2(O)C(=O)CO`, the inhibition entry in the data set with Intestinal mucosa [6], with Intestinal mucosa [7], in the data set on Intestinal mucosa [8] and with Intestinal mucosa [9] was “Active” throughout.
Consider `COc1ccc2nccc(Nc3cc(O)ccc3C)c2c1`, for which the Papp in [1] worked out at 23 ×10⁻⁶ cm/s.
With `CC(C)S(=O)(=O)c1ccc2nccc(Nc3n[nH]c4ccc(F)cc34)c2c1`, in data set [2], the peak level (Cmax) was 370 ng/mL. Besides, the AUC in data set [3] stood at 1100 ng·h/mL. Besides, the IC50 in [4] and in data set [5] was greater than 5 µM throughout.

A word on the Cmax: it is the peak of the concentration-time curve. Usually AUC stands for concentration integrated over time. Read a high AUC as more exposure. In general, IC50 refers to the concentration needed to halve the response being measured. A high value points to weaker potency in that assay.

The record behind these values is ChEMBL document CHEMBL3822396 (J Med Chem, 2016).
